Laboratory results as given in patent US9884839B2, “Inhibitors of 17Beta-hydroxysteroid dehydrogenases type 1 and type 2” (ElexoPharm GmbH, priority 2014, dated 2018).
Where two headings read alike, the source gives them in different places.

Assays:
human 17β-HSD1 = biological target: T1, human 17β-HSD1 (Homo sapiens, UniProt P14061); test: Inhibition of human 17β-HSD1 (conversion of [3H]-E1 to E2, HPLC radioflow detection); format: biochemical; conditions: read-out: IC50 [nM] h17β-HSD1
T1 construct: For the partial purification of 17β-HSD1, the cytosolic fraction was precipitated with ammonium sulfate; from tissue; host or cells: human placenta, cytosolic fraction, ammonium sulfate precipitate
T1 sequence (P14061 1-328): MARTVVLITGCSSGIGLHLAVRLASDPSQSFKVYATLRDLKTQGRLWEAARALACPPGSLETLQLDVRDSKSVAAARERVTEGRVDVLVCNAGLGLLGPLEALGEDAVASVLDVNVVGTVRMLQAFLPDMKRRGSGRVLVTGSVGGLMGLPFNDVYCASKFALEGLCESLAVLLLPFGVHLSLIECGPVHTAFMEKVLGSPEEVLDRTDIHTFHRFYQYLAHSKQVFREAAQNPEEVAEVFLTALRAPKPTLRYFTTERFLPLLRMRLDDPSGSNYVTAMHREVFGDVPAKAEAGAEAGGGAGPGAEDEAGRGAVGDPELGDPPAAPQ

human 17β-HSD2 = biological target: T2, human 17β-HSD2 (Homo sapiens, UniProt P37059); test: Inhibition of human 17β-HSD2 (conversion of [3H]-E2 to E1); format: biochemical; conditions: read-out: IC50 [nM] h17β-HSD2
T2 construct: 17β-HSD2 was obtained from the microsomal fraction; from tissue; host or cells: human placenta, microsomal fraction
T2 sequence (P37059 1-387): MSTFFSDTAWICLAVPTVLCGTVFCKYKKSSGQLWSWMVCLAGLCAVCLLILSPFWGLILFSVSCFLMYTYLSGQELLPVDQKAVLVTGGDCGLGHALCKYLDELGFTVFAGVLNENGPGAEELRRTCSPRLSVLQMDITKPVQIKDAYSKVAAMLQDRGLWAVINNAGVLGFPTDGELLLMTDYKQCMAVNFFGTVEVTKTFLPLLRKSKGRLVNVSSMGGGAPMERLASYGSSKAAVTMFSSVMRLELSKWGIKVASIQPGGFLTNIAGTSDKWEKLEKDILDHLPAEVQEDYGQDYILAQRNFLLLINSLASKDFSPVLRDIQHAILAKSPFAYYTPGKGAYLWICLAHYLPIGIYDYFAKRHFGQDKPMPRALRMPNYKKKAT

mouse 17β-HSD1 = biological target: T3, mouse 17β-HSD1 (Mus musculus, UniProt P51656); test: Inhibition of mouse 17β-HSD1 (recombinant, HEK293 lysate); format: biochemical
T3 construct: made in house; host or cells: HEK293 cells, transient transfection; 1,000 g supernatant of the cell lysate
T3 sequence (P51656 1-344): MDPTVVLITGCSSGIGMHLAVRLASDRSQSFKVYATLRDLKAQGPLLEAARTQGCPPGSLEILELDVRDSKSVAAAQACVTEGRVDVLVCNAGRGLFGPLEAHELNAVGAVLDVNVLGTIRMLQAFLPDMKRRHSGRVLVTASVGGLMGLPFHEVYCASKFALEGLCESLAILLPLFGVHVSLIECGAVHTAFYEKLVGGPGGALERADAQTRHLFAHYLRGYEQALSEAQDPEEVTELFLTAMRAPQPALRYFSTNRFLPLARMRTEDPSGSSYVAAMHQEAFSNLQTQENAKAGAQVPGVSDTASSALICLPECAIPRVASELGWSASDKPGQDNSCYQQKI

mouse 17β-HSD2 = biological target: T4, mouse 17β-HSD2 (Mus musculus, UniProt P51658); test: Inhibition of mouse 17β-HSD2 (liver microsomal fraction); format: biochemical; conditions: for inhibition at 1 µM: read-out: Inhibition @ 1 μM m17β-HSD2; for IC50: read-out: IC50 m17β-HSD2
T4 construct: The pellet fractions containing the microsomal 17β-HSD2 were used for the determination of E1 formation; from tissue; host or cells: mouse liver, microsomal fraction
T4 sequence (P51658 1-381): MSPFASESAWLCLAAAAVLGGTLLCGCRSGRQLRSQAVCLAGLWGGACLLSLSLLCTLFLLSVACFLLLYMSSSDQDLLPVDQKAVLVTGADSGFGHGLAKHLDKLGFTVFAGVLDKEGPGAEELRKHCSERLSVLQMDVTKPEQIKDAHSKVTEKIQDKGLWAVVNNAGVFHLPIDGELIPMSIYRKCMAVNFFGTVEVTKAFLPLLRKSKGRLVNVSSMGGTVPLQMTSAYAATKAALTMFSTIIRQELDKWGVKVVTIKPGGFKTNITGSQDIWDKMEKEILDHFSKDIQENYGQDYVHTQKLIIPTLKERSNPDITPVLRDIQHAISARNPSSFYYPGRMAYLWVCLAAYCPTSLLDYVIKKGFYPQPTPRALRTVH

rat 17β-HSD1 = biological target: T5, rat 17β-HSD1 (Rattus norvegicus, UniProt P51657); test: Inhibition of rat 17β-HSD1 (recombinant, HEK293 lysate); format: biochemical; conditions: read-out: % Inhibition r17β-HSD1; for inhibition at […]: Cmpd conc. 250 nM
T5 construct: made in house; host or cells: HEK293 cells, transient transfection; 1,000 g supernatant of the cell lysate
T5 sequence (P51657 1-344): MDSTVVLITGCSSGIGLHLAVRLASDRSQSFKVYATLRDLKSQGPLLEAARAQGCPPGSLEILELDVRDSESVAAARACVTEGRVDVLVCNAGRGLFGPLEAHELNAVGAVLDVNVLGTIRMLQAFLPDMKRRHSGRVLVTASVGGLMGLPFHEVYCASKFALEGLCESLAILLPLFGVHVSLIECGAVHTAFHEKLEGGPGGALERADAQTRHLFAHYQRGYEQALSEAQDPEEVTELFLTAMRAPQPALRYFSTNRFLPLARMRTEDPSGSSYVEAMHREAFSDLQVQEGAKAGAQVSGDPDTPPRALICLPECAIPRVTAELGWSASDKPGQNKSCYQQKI

rat 17β-HSD2 = biological target: T6, rat 17β-HSD2 (Rattus norvegicus, UniProt Q62730); test: Inhibition of rat 17β-HSD2 (liver microsomal fraction); format: biochemical; conditions: read-out: % Inhibition r17β-HSD2
T6 construct: The pellet fractions containing the microsomal 17β-HSD2 were used for the determination of E1 formation; from tissue; host or cells: rat liver, microsomal fraction
T6 sequence (Q62730 1-381): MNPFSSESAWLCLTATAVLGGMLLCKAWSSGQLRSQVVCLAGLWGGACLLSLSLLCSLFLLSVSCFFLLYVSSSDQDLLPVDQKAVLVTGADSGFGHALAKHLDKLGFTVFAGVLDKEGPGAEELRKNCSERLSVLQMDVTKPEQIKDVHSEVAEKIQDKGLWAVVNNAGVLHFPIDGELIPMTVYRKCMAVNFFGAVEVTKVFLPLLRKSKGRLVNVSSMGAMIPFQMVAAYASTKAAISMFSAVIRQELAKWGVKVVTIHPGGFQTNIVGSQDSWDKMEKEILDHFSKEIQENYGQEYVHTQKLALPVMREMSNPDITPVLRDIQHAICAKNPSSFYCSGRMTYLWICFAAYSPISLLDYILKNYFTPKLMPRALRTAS

in vitro = conditions: human, pooled human liver S9 fraction
[1] = human liver S9, 1 mg/mL; unit not given
[2] = human placental cytosolic enzyme, E1 500 nM, NADH, Tables 1, 4-11
[3] = read-out: Inhibition @ 1 μM m17β-HSD1
[4] = Tables 4 and 6, no % sign and concentration not given, Table 1 lists these compounds as inhibition @ 1 μM, read-out: IC50 [nM] or % inhibition m17β-HSD1 (bare number, kind not marked)

Structure (SMILES)	IC50 (human 17β-HSD1; [2])	IC50 (human 17β-HSD2)	inhibition at 1 µM (mouse 17β-HSD1; [3])	inhibition at 1 µM (mouse 17β-HSD2)	inhibition at […] (rat 17β-HSD1)	inhibition at […] (rat 17β-HSD2)	half-life at 1 µM (in vitro)	CLint [1]	IC50 (human 17β-HSD1)	IC50 (mouse 17β-HSD1; recombinant mouse enzyme, E1 10 nM, NADPH, read-out: IC50 m17β-HSD1)	inhibition at 0.5 µM (rat 17β-HSD1; Cmpd conc. 500 nM)	inhibition at 0.5 µM (rat 17β-HSD2)	inhibition at 1 µM (mouse 17β-HSD1; [4])	IC50 (mouse 17β-HSD2)
COc1c(C)cc(-c2ccc(C(=O)c3c(F)ccc(O)c3F)s2)cc1C [Compound 16, (2,6-Difluoro-3-hydroxy-phenyl)-[5-(4-methoxy-3,5-dimethyl-phenyl)-thiophen-2-yl]-methanone]	0.9 nM	18 nM	59%	55%	39%	27%	8.5 min	81.3						
Nc1cccc(-c2ccc(C(=O)c3cc(F)c(F)c(O)c3F)s2)c1 [Compound 35, [5-(3-Aminophenyl)thiophen-2-yl](2,4,5-trifluoro-3-hydroxyphenyl)methanone]	49 nM	5 nM	9%	80%	46%	100%							13%	177 nM
O=C(c1ccc(-c2ccc(F)cc2F)s1)c1cc(F)c(F)c(O)c1F [Compound 40, [5-(2,4-Difluoro-phenyl)-thiophen-2-yl]-(2,4,5-trifluoro-3-hydroxy-phenyl)-methanone]		1.4 nM	28%		58%	86%			7.2 nM				27.5%	326 nM

Second part, the molecule after the results:

IC50 (human 17β-HSD1; [2])	IC50 (human 17β-HSD2)	inhibition at 1 µM (mouse 17β-HSD1; [3])	inhibition at 1 µM (mouse 17β-HSD2)	inhibition at […] (rat 17β-HSD1)	inhibition at […] (rat 17β-HSD2)	half-life at 1 µM (in vitro)	CLint [1]	IC50 (human 17β-HSD1)	IC50 (mouse 17β-HSD1; recombinant mouse enzyme, E1 10 nM, NADPH, read-out: IC50 m17β-HSD1)	inhibition at 0.5 µM (rat 17β-HSD1; Cmpd conc. 500 nM)	inhibition at 0.5 µM (rat 17β-HSD2)	inhibition at 1 µM (mouse 17β-HSD1; [4])	IC50 (mouse 17β-HSD2)	Structure (SMILES)
	7 nM		76%	63%	35%	2.6 min	272.7	0.4 nM	397 nM					Cc1cc(-c2ccc(C(=O)c3c(F)ccc(O)c3F)s2)cc(C)c1O [Compound 24, (2,6-Difluoro-3-hydroxy-phenyl)-[5-(4-hydroxy-3,5-dimethyl-phenyl)-thiophen-2-yl]-methanone]
4.7 nM	26 nM	25%	41%			6.5 min	106.8			51%	55%			COc1c(Cl)cc(-c2ccc(C(=O)c3c(F)ccc(O)c3F)s2)cc1CN1CCNCC1 [Compound 30, [5-(3-Chloro-4-methoxy-5-piperazin-1-ylmethyl-phenyl)-thiophen-2-yl]-(2,6-difluoro-3-hydroxy-phenyl)-methanone]
